The text below walks through data of US8055452B2, “Identification, monitoring and treatment of disease and characterization of biological condition using gene expression profiles” (Life Technologies Corporation, priority 2001, dated 2011).

Data set [1] concerns inflammation index (Inflammation Gene Expression Panel loci). Description: Inflammation index in rheumatoid arthritis patients under therapy. In kind it is in vivo, human. An excerpt:
FIG. 17A further illustrates the consistency of inflammatory gene expression, illustrated here with respect to 7 loci of (of the Inflammation Gene Expression Panel of Table 1), in a population of 44 normal, undiagnosed blood donors. For each individual locus is shown the range of values lying within ±2 standard deviations of the mean expression value, which corresponds to 95% of a normally distributed population. Notwithstanding the great width of the confidence interval (95%), the measured gene expression value (ΔCT)—remarkably—still lies within 10% of the mean, regardless of the expression level involved. As described in further detail below, for a given biological condition an index can be constructed to provide a measurement of the condition. This is possible as a result of the conjunction of two circumstances: (i) there is a remarkable consistency of Gene Expression Profiles with respect to a biological condition across a population and (ii) there can be employed procedures that provide substantially reproducible measurement of constituents in a Gene Expression Panel giving rise to a Gene Expression Profile, under measurement conditions wherein specificity and efficiencies of amplification for all constituents of the panel are substantially similar and which therefore provides a measurement of a biological condition. Accordingly, a function of the expression values of representative constituent loci of FIG. 17A is here used to generate an inflammation index value, which is normalized so that a reading of 1 corresponds to constituent expression values of healthy subjects, as shown in the right-hand portion of FIG. 17A.
In FIG. 17B, an inflammation index value was determined for each member of a population of 42 normal undiagnosed blood donors, and the resulting distribution of index values, shown in the figure, can be seen to approximate closely a normal distribution, notwithstanding the relatively small population size. The values of the index are shown relative to a 0-based median, with deviations from the median calibrated in standard deviation units. Thus […] of the population lies within +1 and −1 of a 0 value.
FIG. 17C illustrates the use of the same index as FIG. 17B, where the inflammation median for a normal population has been set to zero and both normal and diseased subjects are plotted in standard deviation units relative to that median. An inflammation index value was determined for each member of a normal, undiagnosed population of 70 individuals (black bars). The resulting distribution of index values, shown in FIG. 17C, can be seen to approximate closely a normal distribution. Similarly, index values were calculated for individuals from two diseased population groups, (1) rheumatoid arthritis patients treated with methotrexate (MTX) who are about to change therapy to more efficacious drugs (e.g., TNF inhibitors) (hatched bars), and (2) rheumatoid arthritis patients treated with disease modifying anti-rheumatoid drugs (DMARDS) other than MTX, who are about to change therapy to more efficacious drugs (e.g., MTX). […] This figure thus illustrates the utility of an index to derived from Gene Expression Profile data to evaluate disease status and to provide an objective and quantifiable treatment objective. When these two populations were treated appropriately, index values from both populations returned to a more normal distribution (data not shown here).
This subject in fact was also on a regimen of an anti-inflammation steroid (prednisone) that was being tapered; within approximately one week after the inflammation index was sampled, the subject experienced a significant flare of clinical symptoms.

The test system is the same in data set [2]. Description: Inflammation index in subject with inflammatory bowel disease. In kind it is in vivo, human. Conditions: single subject with inflammatory bowel disease. From the text:
FIG. 24 illustrates use of the inflammation index for assessment of a single subject suffering from inflammatory bowel disease, for whom treatment with Remicade was initiated in three doses. […] Again, the index, besides providing a measure of biological condition, is here used to measure the effectiveness of therapy (Remicade), as well as to provide a target for therapeutic intervention in terms of both dose and schedule.

For data set [3] the test system is unchanged. Conditions: studies have shown; cited from earlier work.
The subject of data set [4] is Inflammation Gene Expression Panel of Table 1 (24 of 48 loci). Description: Inflammation Gene Expression Panel in whole blood after single oral dose of prednisone. The data set is classed as in vivo. Conditions: single human subject, single 60 mg oral dose. An excerpt:
(§1) For measuring the amount of a particular RNA in a sample, we have used methods known to one of ordinary skill in the art to extract and quantify transcribed RNA from a sample with respect to a constituent of a Gene Expression Panel. (See detailed protocols below. Also see PCT application publication number WO 98/24935 herein incorporated by reference for RNA analysis protocols). Briefly, RNA is extracted from a sample such as a tissue, body fluid, or culture medium in which a population of a subject might be growing. For example, cells may be lysed and RNA eluted in a suitable solution in which to conduct a DNAse reaction. First strand synthesis may be performed using a reverse transcriptase. Gene amplification, more specifically quantitative PCR assays, can then conducted and the gene of interest size calibrated against a marker such as 18S rRNA (Hirayama et al., Blood 92, 1998: 46-52). Samples are measured in multiple duplicates, for example, 4 replicates. Relative quantitation of the mRNA is determined by the difference in threshold cycles between the internal control and the gene of interest In an embodiment of the invention, quantitative PCR is performed using amplification, reporting agents and instruments such as those supplied commercially by Applied Biosystems (Foster City, Calif.). […]

Data set [5] relates to 5 genes of the Inflammation Gene Expression Panel. Description: Whole blood samples after prednisone dose, challenged with lipopolysaccharide, gene expression profile. In kind it is in vivo, human. The settings on record: challenged with 0.1 ng/ml lipopolysaccharide. The protocol:
The samples were taken at the time of administration (t=0) of the prednisone, then at two and 24 hours after such administration. Each whole blood sample was challenged by the addition of 0.1 ng/ml of lipopolysaccharide (a Gram-negative endotoxin) and a gene expression profile of the sample, post-challenge, was determined.

For data set [6], the system named is IL1A, IL1B, TNF, IFNG and IL10. Description: Acute Inflammation Index from whole blood gene expression of treated human subject. Conditions: single patient with optic neuritis; oral prednisone at 60 mg per day tapered to 10 mg per day, after IV steroid. In kind it is in vivo.
From the text: as §1

Where [7] appears, read: 10 stable rheumatoid arthritis patients treated with Enbrel (FIG. 22).

Take Enbrel: in data set [1] (setting [7]), the inflammation index result was “comes much closer to normal” and the “patients with inflammation index in the normal range” value was 80%.

As to Remicade: another TNF inhibitor, the inflammation index result in data set [2] (24 hours after the first treatment) is recorded as “returned to the normal range”; in data set [2] (just prior to the second dose), “elevated”; in data set [2] (prior to the third dose), “in the normal range”; in data set [1] (10 stable rheumatoid arthritis patients treated with Remicade (FIG. 23), all but one of the patients), “at or below normal”. In addition, the “infections in treated subjects” value in data set [3] is “associated with serious infections in some subjects”. In data set [1] (two of the 10 rheumatoid arthritis patients treated with Remicade (FIG. 23)), the “inflammation index suggesting immunosuppressive response” value was “abnormally low inflammation index”.

`C[C@]12C=CC(=O)C=C1CC[C@@H]1[C@@H]2C(=O)C[C@@]2(C)[C@H]1CC[C@]2(O)C(=O)CO` [prednisone]: the “inflammatory gene expression relative to baseline” value in data set [4] (2 hr post dose) is “decreased expression of most of inflammation-related gene loci”. Further, the “inflammatory gene expression relative to baseline” value in data set [4] (24 hr post dose, loci reduced at 2 hours) is “elevated gene expression levels”. For the same molecule, in data set [5] (24 hours post administration), the “inhibitory effect on gene expression of the 5 loci” value was “no longer apparent” and the “number of the 5 loci with gene expression higher than at t=0 (rebound effect)” value is on record as 3. Also, the “gene expression of the 5 loci in relation to t=0” value in data set [5] (two-hour sample) is listed as “dramatically reduced gene expression”. The acute inflammation index entry in data set [6] is “goes up”.

Turning to `CN(Cc1cnc2nc(N)nc(N)c2n1)c1ccc(C(=O)N[C@@H](CCC(=O)O)C(=O)O)cc1` [methotrexate], the inflammation index result in data set [1] (10 stable rheumatoid arthritis patients treated with methotrexate (FIG. 21)) was “elevated compared to normal”. The “inflammation index values in comparison to the normal distribution” value in data set [1] (rheumatoid arthritis patients treated with MTX who are about to change therapy (FIG. 17C)) was “skewed upward”.
